Results on four molecules are retold here after US20020150553A1, “Compositions containing C-terminal polypeptides of angiogenic chemokines and methods of use” (The Regents of the University of California, priority 1999, published 2002).

The nature of data set [1]: Time-dependent release of the 9E3 peptide from methylcellulose pellets. Type of data set: physicochemical. The settings on record: 300 ng 125I-labeled peptide in 0.5% methylcellulose pellet, PBS, 37° C. The method, then: Samples of 280 μl of saline were removed periodically for scintillation counting and replaced by fresh saline. Error bars represent the standard deviation for 15 samples taken at each time point.
Methylcellulose pellets containing either form of the peptide at different concentrations were placed on mature CAMs [see Martins-Green M, Feugate J E (1998) The 9E3/CEF4 gene product is a chemotactic and angiogenic factor that can initiate the wound healing cascade in vivo. Cytokine 10:522-535]. Because the peptide is much smaller than cCAF itself, it is possible that release from the pellet might be much more rapid than for the entire molecule. Therefore, before performing the experiments on the CAM we determined the kinetics of release of the C-terminal peptide from pellets under reducing conditions for which the peptide will be a monomer and therefore of smallest size.
Five microliters of 0.5% methylcellulose (Fisher) containing 300 ng of ^125I-labeled 9E3 peptide were placed in the bottom of 15 Eppendorf tubes (0.5 ml), allowed to dry and then covered with 300 μl of sterile PBS containing 0.02% sodium azide and incubated at 37° C. […] The label released into the fluid was counted in a scintillation counter to determine if and over what period of time the peptide was released.

Data set [2] deals with blood vessels of the chorioallantoic membrane (CAM). The data set can be described thus: Angiogenesis assays in the CAM (chorioallantoic membrane). It is filed as in vivo, chicken. The conditions noted are these: for percent of blood vessels oriented towards the pellet minus percent directed away: cCAF peptide 100-300 ng; for angiogenesis / oriented blood vessel growth after preincubation with antibody: peptide (100-300 ng) preincubated with excess of an antibody prepared against it; for new sprouting of blood vessels of the CAM: 4 days after application. As to the method:
(§1) These assays were done as previously described [Martins-Green et al. (1998)]. Briefly, fertilized chicken eggs were incubated for 3 days at 37° C., at which time 2 ml of albumin were withdrawn to drop the embryo and CAM away from the shelf. Windows were made on day 4, the holes covered with transparent tape, and the eggs placed back in the incubator until day 10 when the experiment was performed. Pellets were prepared by mixing the appropriate amount of reduced and non-reduced 9E3 peptides or bFGF with 1% methylcellulose (1:1) and then delivering 5-μl droplets on a bacterial dish and allowing them to dry in a sterile hood for approximately 30 min. This procedure generated small disc-shaped pellets 2 mm in diameter and ˜0.1 mm thick. These pellets containing various concentrations of protein were placed, under sterile conditions, between two large blood vessels of the 10-day-old CAMs. Two or four days later, the pellets and the surrounding area of the CAM were fixed in situ; the CAMs were then removed and examined for the presence of chemotaxis and/or angiogenesis. Angiogenesis was quantified by analysis of blood vessel orientation and/or increase in the number of vessels and sprouts (see below). Negative control pellets were prepared in the same way with 0.5% methylcellulose alone or with the same concentration of BSA as used for the cCAF peptide or with peptide preincubated with an antibody made against it [Martins-Green et al. (1992)].
As previously described, 10-day-old CAMs were used because at this stage of development the CAM close to the embryo is fully developed; the blood vessels in this area have stopped growing and assumed a tree-like pattern with short stubby tertiary branches (FIG. 2A). […] [Martins-Green et al. (1997); Vu M T, Smith C F, Burger P C, Klintworth G K (1985) Methods in laboratory investigation. An evaluation of methods to quantitate the chick chorioallantoic membrane assay in angiogenesis. Lab Invest 4:499-508; Klagsbrun M, D'Amore P A (1991) Regulators or angiogenesis. Annu Rev Physiol 53:217-239; Cockerill G W, Gamble J R, Vadas M A (1995) Angiogenesis: models and modulators. Interntl Rev Cytol 1.59:113-160; and Swerlick R A (1995) Angiogenesis. J Dermatol 22:845-852.]
The CAMs were then analyzed by making measurements of the orientation of the blood vessels relative to the pellet. For each concentration of the C-terminal peptide and for all controls, 6-10 CAMs were measured. Vessels were classified (FIG. 2A) as primary (largest), secondary (branches of primary vessels) and tertiary (all other vessels). […] The measurements were made without prior knowledge of which specimens were controls and which were cCAF. For secondary vessels; we looked for deviations in their orientations. For tertiary vessels, each vessel was approximated by a vector pointing in its growth direction. Each vector was resolved into components directed radially and tangentially with respect to the pellet; the definition of toward or away was determined from the radial component of the vector. For graphical presentation of the data, the percent of blood vessels growing toward the pellet was determined for secondary and tertiary vessels (FIG. 5).
Quantification of blood vessel sprouting was performed as described previously [Martins-Green et al. (1998)]. Briefly, a sprout was defined as a very small blood vessel having a length of one third or less that of the tertiary branches of the normal CAM. Sprouts thus defined were counted in the areas of the CAMs with pellets containing 1000 ng of C-terminal peptide. For CAMs treated with 1000 ng/pellet of C-terminal peptide, we counted sprouts on 90 mm total of 21 individual blood vessel segments from 6 different CAMs. For the BSA controls we counted sprouts on 123 mm of 24 segments of blood vessels.

Data set [3] concerns leukocytes. The data set can be described thus: Chemotaxis for leukocytes and tissue changes in cross sections of treated CAMs. Type of data set: in vivo, chicken. The settings on record: for chemotaxis for leukocytes: 100 ng. As to the method: The cells inside the large blood vessel are erythrocytes (these chicken cells are nucleated). […] (C) Natural CAM showing sparse cells and a single blood vessel. Scale bars=100 μm.
as §1
Although the general structure of treated and untreated CAMs is the same, some differences were seen.

In data set [4] the test system is blood vessels of wing muscle tissue. The data set can be described thus: Angiogenic assays in 2-week-old chicks (peptide deposited under the skin of the wing). Type of data set: in vivo, chick. The conditions noted are these: 1 μg/10 μl under the skin of the wing on two consecutive days, four days after first dose. The source says: Hematoxylin and eosin stained cross sections of wing muscle tissue showing organization of the muscle fibers. (A) Very few blood vessels (arrowheads) can be seen amongst the untreated muscle fibers. A large nerve bundle can be seen (black dot) associated with three small blood vessels. (B) Similar section taken from the wing of a bird that has been treated with the C-terminus peptide. Note the presence of numerous small blood vessels (arrowheads) amongst the muscle fibers. (C) Similar section from a bird treated with only buffer vehicle for the peptide. The number of blood vessels (arrowheads) is similar to that of the control. Scale bar=50 μm.
To further test the angiogenic potential of the C-terminal peptide, 1 μg of the peptide in 10 μl of water was deposited under the skin of the underside of the wing of 2-week-old chicks on two consecutive days, and the tissues prepared for histology on the fourth day.
The C-terminal peptide was deposited under the skin of the under wing of […] chicks using a procedure described previously [Martins-Green M, Boudreau N, Bissell M J (1994) Inflammation is responsible for the development of wound tumors in RSV-infected newly-hatched chicks. Cancer Res 54:4334-4341]. Two samples of 1 μg/10 μl each, were applied on two consecutive days followed by a waiting period of 3 days. […]

For data set [5] the following is noted: supernatant of normal cultures of CEFs; cited from earlier work.
Where [6] appears, read: higher doses, 600-1000 ng/pellet.
Setting [7] is: CAM cross sections two days after application of pellets.

As to “C-terminal peptide: last 28 aas of the C-terminus of cCAF (residues 76 to 103 of SEQ ID NO:1), with cysteine No. 4 as N-terminal most aa (CLDPTAPWVQLIVKALMAKAQLNSDAPL; Gallusgallus)”, the “duration of slow, prolonged release from the pellet” value in data set [1] was “up to 48 h”. Moreover, the “period in which the majority of the peptide was released from the pellet” value in data set [1] (reducing conditions (monomer)) is not above 6 h. The “number of new sprouts relative to CAMs treated with BSA” value in data set [2] (1000 ng/pellet) was “about 10 times”. Besides, in data set [2] (100-300 ng per pellet), the “blood vessel growth towards the pellet” value is recorded as “stimulated the blood vessels to grow towards the pellet”. Besides, the “tortuosity and sprouting effects after preincubation with antibody” value in data set [2] (600-1000 ng/pellet, peptide preincubated with excess antibody directed against it) was “eliminated”. In addition, in data set [2] (bFGF 500 ng), the “percent of blood vessels oriented towards the pellet minus percent directed away” value is reported as “marked blood vessel orientation toward the pellet”. The “reorientation of blood vessels” value in data set [2] (setting [6]) was “greatly decreased”. Moreover, in data set [2] (setting [6]), the “sprouting of blood vessels” value is “abundant sprouting”. The “tortuosity of blood vessels” value in data set [2] (setting [6]) is “marked tortuosity”. Further, in data set [2] (localized administration in CAM assay), the “most effective doses (significant increase in angiogenic activity: tortuosity and sprouting)” value is listed as more than 450 ng. Further, the “percentage of CAMs showing reorientation and/or growth of blood vessels towards the pellet” value is listed as 94% in data set [2] (non-reduced peptide); approximately 100% in data set [2] (non-reduced peptide, listed as cCAF peptide); 96% in data set [2] (peptide under reducing conditions); approximately 100% in data set [2] (peptide under reducing conditions, listed as cCAF peptide). Further, the “angiogenesis / oriented blood vessel growth after preincubation with antibody” value in data set [2] was “the effect was eliminated”; in data set [2] (listed as cCAF peptide), “no angiogenesis was seen”. Moreover, the “most effective dose for oriented growth of secondary blood vessels” value in data set [2] (per pellet, secondary vessels) is approximately 100 ng. Moreover, the “most effective dose for oriented growth of tertiary blood vessels” value in data set [2] (per pellet, tertiary vessels) was approximately 300 ng. In data set [3] (setting [7]), the “hyperproliferation of the ectoderm of the CAM” value is given as “slightly hyperproliferated”. For the same molecule, the chemotaxis for leukocytes entry in data set [3] (setting [7]) is “no chemotaxis for leukocytes”. Also, the “leukocyte chemotaxis or granulation-like tissue formation” value in data set [3] (in vivo, CAM and chick wing) was “no evidence was found”. In addition, the “small blood vessels in muscle tissue underlying the site of application versus vehicle and normal wing” value in data set [4] was “many more small blood vessels”.
“IL-8: interleukin 8, ELR-CXC chemokine (SEQ ID NO:3)”: the “new sprouting of blood vessels of the CAM” value in data set [2] (500 ng per pellet) is recorded as “extensive new sprouting”.
As to “bFGF: Basic fibroblast growth factor, positive control in the CAM assay [reference compound]”, the “percent of blood vessels oriented towards the pellet minus percent directed away” value in data set [2] (bFGF 500 ng) is given as “marked blood vessel orientation toward the pellet”. Moreover, the “percentage of CAMs showing reorientation and/or growth of blood vessels towards the pellet” value in data set [2] (positive control, 500 ng/pellet) is recorded as 100%. Further, the “percent of secondary vessels deviated toward the pellet” value in data set [2] (secondary vessels, bFGF 500 ng) is listed as “over 90%”. Besides, the “percent of tertiary vessels pointing in the direction of the pellet” value in data set [2] (tertiary vessels, bFGF 500 ng) is reported as “less than 80%”.

B1: cCAF: Chicken chemotactic and angiogenic factor, product of the 9E3 gene, 9 kDa CXC chemokine (SEQ ID NO:1) (protein)
chain: MNGKLGAVLALLLVSAALSQGRTLVKMGNELRCQCISTHSKFIHPKSIQDVKLTPSGPHCKNVEIIATLKDGREVCLDPTAPWVQLIVKALMAKAQLNSDAPL
modifications: Gallusgallus
On to B1, for which, in data set [2] (450 ng per pellet), the “new sprouting of blood vessels of the CAM” value is on record as “extensive new sprouting”. Also, in data set [3] (setting [7]), the chemotaxis for leukocytes entry is “chemotactic for monocyte/macrophages and lymphocytes”. Besides, the “period for which the 9 kDa form is stable” value in data set [5] is 24 h.
